± gives the expanded uncertainty stated by the source.
Assays:
[1] = Boiling temperature at pressure P; settings: 101.3 kPa; Liquid; Ebulliometric method (Recirculating still)
[2] = 298.15 K; 101.33 kPa; Liquid; Vibrating tube method
[3] = refractive index (Na D-line) (dimensionless); settings: 293.15 K; 101.33 kPa; Liquid; Standard Abbe refractometry

**Q.** With `Cc1ccccn1` [2-methylpyridine] as the molecule, how does the “Boiling temperature at pressure P” value [1] read?
**A.** The value was 129.1 ± 0.2 °C.

**Q.** And the mass density [2]?
**A.** The mass density was 940.5 ± 0.1 kg/m3.

**Q.** What about the refractive index [3] of the same molecule?
**A.** The refractive index was 1.4985 ± 0.0007.

**Q.** With `O` [water] as the molecule, how does the “Boiling temperature at pressure P” value [1] read?
**A.** Its value is 100.10 ± 0.2 °C.

**Q.** What about the refractive index [3] of the same molecule?
**A.** Its refractive index is 1.3322 ± 0.0007.

From the NIST ThermoML archive (doi:10.1021/acs.jced.6b00713)
